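Assay format: 96-well plates, 48-hour exposure. The concentration for 50% growth inhibition is given as GI50. TGI: total growth inhibition.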 Where a SMILES comes first, the peptide text is derived from it. [ ]: non-standard residue; d: D form. The star is where a group is joined. Ac5c = NC1(C(=O)O)CCCC1; Cbz = O=C(OCc1ccccc1)*; Boc = CC(C)(C)OC(=O)*; tBu = CC(C)(C)*
Assays:
Experiment in all cases: NCI-60 cell line screen, 48 h
COLO 205 colon = test system: COLO 205 colon
HL-60(TB) leukemia = test system: HL-60(TB) leukemia
NCI-H23 lung = test system: NCI-H23 lung
NCI-H460 lung = test system: NCI-H460 lung
SF-268 CNS = test system: SF-268 CNS
SNB-19 CNS = test system: SNB-19 CNS
KM12 colon = test system: KM12 colon
A498 renal = test system: A498 renal
786-0 renal = test system: 786-0 renal
M14 melanoma = test system: M14 melanoma
K-562 leukemia = test system: K-562 leukemia
HOP-62 NSCLC = test system: HOP-62 NSCLC
CAKI-1 renal = test system: CAKI-1 renal
OVCAR-5 ovarian = test system: OVCAR-5 ovarian
HCT-15 colon = test system: HCT-15 colon
RPMI-8226 leukemia = test system: RPMI-8226 leukemia
MOLT-4 leukemia = test system: MOLT-4 leukemia
SK-MEL-2 melanoma = test system: SK-MEL-2 melanoma
NCI/ADR-RES ovarian = test system: NCI/ADR-RES ovarian
MCF7 breast = test system: MCF7 breast
SF-295 CNS = test system: SF-295 CNS
MALME-3M melanoma = test system: MALME-3M melanoma
CCRF-CEM leukemia = test system: CCRF-CEM leukemia
SN12C renal = test system: SN12C renal
UACC-257 melanoma = test system: UACC-257 melanoma
OVCAR-8 ovarian = test system: OVCAR-8 ovarian
BT-549 breast = test system: BT-549 breast
SK-MEL-5 melanoma = test system: SK-MEL-5 melanoma
T-47D breast = test system: T-47D breast
SK-OV-3 ovarian = test system: SK-OV-3 ovarian
UACC-62 melanoma = test system: UACC-62 melanoma
NCI-H522 lung = test system: NCI-H522 lung
SR leukemia = test system: SR leukemia
OVCAR-4 ovarian = test system: OVCAR-4 ovarian
IGROV1 ovarian = test system: IGROV1 ovarian
U251 CNS = test system: U251 CNS
HCT-116 colon = test system: HCT-116 colon
HT29 colon = test system: HT29 colon
HCC-2998 colon = test system: HCC-2998 colon
TK-10 renal = test system: TK-10 renal
HOP-92 NSCLC = test system: HOP-92 NSCLC
SW-620 colon = test system: SW-620 colon
HS 578T breast = test system: HS 578T breast
EKVX NSCLC = test system: EKVX NSCLC
ACHN renal = test system: ACHN renal
OVCAR-3 ovarian = test system: OVCAR-3 ovarian
UO-31 renal = test system: UO-31 renal
SK-MEL-28 melanoma = test system: SK-MEL-28 melanoma
RXF 393 renal = test system: RXF 393 renal
SNB-75 CNS = test system: SNB-75 CNS
A549 NSCLC = test system: A549 NSCLC
MDA-MB-231 breast = test system: MDA-MB-231 breast
LOX IMVI melanoma = test system: LOX IMVI melanoma
NCI-H226 lung = test system: NCI-H226 lung
PC-3 prostate = test system: PC-3 prostate
MDA-MB-435 = test system: MDA-MB-435
SF-539 CNS = test system: SF-539 CNS
DU-145 prostate = test system: DU-145 prostate

COc1ccc(OC)c(CC(=O)c2ccc(O)c(C(=O)NCCc3ccc(F)cc3)c2)c1
TGI (COLO 205 colon): 31.7 µM
TGI (HL-60(TB) leukemia): 7.29 µM
TGI (NCI-H23 lung): 14.2 µM
TGI (NCI-H460 lung): 34 µM
TGI (SF-268 CNS): 25 µM
TGI (SNB-19 CNS): 52.5 µM
TGI (KM12 colon): 13.9 µM
TGI (A498 renal): 47 µM
TGI (786-0 renal): 24.5 µM
TGI (M14 melanoma): 9.2 µM
TGI (K-562 leukemia): > 100 µM
TGI (HOP-62 NSCLC): 5.63 µM
TGI (CAKI-1 renal): 14.5 µM
TGI (OVCAR-5 ovarian): > 100 µM
TGI (HCT-15 colon): 17.1 µM
TGI (RPMI-8226 leukemia): 22.9 µM
TGI (MOLT-4 leukemia): 17.4 µM
TGI (SK-MEL-2 melanoma): 12.3 µM
TGI (NCI/ADR-RES ovarian): 8.79 µM
TGI (MCF7 breast): 24.6 µM
TGI (SF-295 CNS): 10.1 µM
TGI (MALME-3M melanoma): 6.9 µM
GI50 (CCRF-CEM leukemia): 2.4 µM
TGI (CCRF-CEM leukemia): 6.65 µM
GI50 (SN12C renal): 4.26 µM
TGI (SN12C renal): 19.4 µM
TGI (UACC-257 melanoma): 44.8 µM
TGI (OVCAR-8 ovarian): 21.8 µM
TGI (BT-549 breast): 38.5 µM
TGI (SK-MEL-5 melanoma): 11.4 µM
TGI (T-47D breast): 8.44 µM
TGI (SK-OV-3 ovarian): 9.96 µM
GI50 (UACC-62 melanoma): 4.01 µM
TGI (UACC-62 melanoma): 21.6 µM
TGI (NCI-H522 lung): 11.2 µM
TGI (SR leukemia): 10 µM
TGI (OVCAR-4 ovarian): 31 µM
TGI (IGROV1 ovarian): 18.1 µM
TGI (U251 CNS): 13.7 µM
GI50 (HCT-116 colon): 4.05 µM
TGI (HCT-116 colon): 19.9 µM
TGI (HT29 colon): 30.5 µM
TGI (HCC-2998 colon): 13.1 µM
TGI (TK-10 renal): 45.8 µM
TGI (HOP-92 NSCLC): 41.4 µM
TGI (SW-620 colon): > 100 µM
TGI (HS 578T breast): 8.69 µM
TGI (EKVX NSCLC): 36.2 µM
TGI (ACHN renal): 56.9 µM
TGI (OVCAR-3 ovarian): 3.17 µM
TGI (UO-31 renal): 23.4 µM
TGI (SK-MEL-28 melanoma): > 100 µM
TGI (RXF 393 renal): 2900 nM
TGI (SNB-75 CNS): 6.9 µM
TGI (A549 NSCLC): 37.6 µM
TGI (MDA-MB-231 breast): 20.4 µM
TGI (LOX IMVI melanoma): 27 µM

COC(=O)C1(NC(=O)C(Cc2ccccc2)NC(=O)C(NC(=O)C(CCCCNC(=O)OC(C)(C)C)NC(=O)C(Cc2c[nH]c3ccccc23)NC(=O)C(Cc2ccccc2)NC(=O)OCc2ccccc2)C(C)OC(C)(C)C)CCCC1 (stereo not given) (Cbz-FWK(Boc)T(tBu)F[Ac5c]-OMe; configuration not given here)
TGI (NCI-H23 lung): > 100 µM
TGI (UACC-257 melanoma): > 100 µM
TGI (HOP-92 NSCLC): > 100 µM
TGI (NCI-H226 lung): > 100 µM

OCCC#Cc1ccccc1C#Cc1ccccc1
GI50 (COLO 205 colon): 19.4 µM
TGI (COLO 205 colon): 38 µM
GI50 (NCI-H23 lung): 18.2 µM
TGI (NCI-H23 lung): 39.9 µM
GI50 (NCI-H460 lung): 21.5 µM
TGI (NCI-H460 lung): 50.7 µM
GI50 (SF-268 CNS): 16.5 µM
TGI (SF-268 CNS): 33.9 µM
GI50 (SNB-19 CNS): 28.1 µM
TGI (SNB-19 CNS): > 100 µM
GI50 (KM12 colon): 7.18 µM
TGI (KM12 colon): 17.2 µM
GI50 (786-0 renal): 16.1 µM
TGI (786-0 renal): 31.3 µM
GI50 (M14 melanoma): 16 µM
TGI (M14 melanoma): 31.6 µM
GI50 (K-562 leukemia): 11 µM
TGI (K-562 leukemia): > 100 µM
GI50 (HOP-62 NSCLC): 18.7 µM
TGI (HOP-62 NSCLC): 33.9 µM
GI50 (CAKI-1 renal): 12.6 µM
TGI (CAKI-1 renal): 25.2 µM
GI50 (OVCAR-5 ovarian): 16.9 µM
TGI (OVCAR-5 ovarian): 50.7 µM
GI50 (HCT-15 colon): 11.6 µM
TGI (HCT-15 colon): 24.8 µM
GI50 (PC-3 prostate): 13.7 µM
TGI (PC-3 prostate): 35.5 µM
GI50 (RPMI-8226 leukemia): 12.4 µM
TGI (RPMI-8226 leukemia): 41.8 µM
GI50 (MOLT-4 leukemia): 9.84 µM
TGI (MOLT-4 leukemia): 51.9 µM
GI50 (SK-MEL-2 melanoma): 40.6 µM
TGI (SK-MEL-2 melanoma): > 100 µM
GI50 (NCI/ADR-RES ovarian): 17.9 µM
TGI (NCI/ADR-RES ovarian): 53.6 µM
GI50 (MCF7 breast): 22.7 µM
TGI (MCF7 breast): 46.5 µM
GI50 (SF-295 CNS): 5.47 µM
TGI (SF-295 CNS): 19.8 µM
GI50 (MDA-MB-435): 11.4 µM
TGI (MDA-MB-435): 23.5 µM
GI50 (SF-539 CNS): 12.7 µM
TGI (SF-539 CNS): 27 µM
GI50 (MALME-3M melanoma): 14 µM
TGI (MALME-3M melanoma): 27.1 µM
GI50 (CCRF-CEM leukemia): 25.9 µM
TGI (CCRF-CEM leukemia): > 100 µM
GI50 (DU-145 prostate): 12.5 µM
TGI (DU-145 prostate): 26.5 µM
GI50 (SN12C renal): 12.5 µM
TGI (SN12C renal): 26.8 µM
GI50 (UACC-257 melanoma): 22.4 µM
TGI (UACC-257 melanoma): 45.9 µM
GI50 (OVCAR-8 ovarian): 30.4 µM
TGI (OVCAR-8 ovarian): 66.9 µM
GI50 (BT-549 breast): 8.98 µM
TGI (BT-549 breast): 22.3 µM
GI50 (SK-MEL-5 melanoma): 12 µM
TGI (SK-MEL-5 melanoma): 25.3 µM
GI50 (T-47D breast): 39.3 µM
TGI (T-47D breast): > 100 µM
GI50 (SK-OV-3 ovarian): 17.3 µM
TGI (SK-OV-3 ovarian): 39.4 µM
GI50 (UACC-62 melanoma): 11.9 µM
TGI (UACC-62 melanoma): 24.4 µM
GI50 (NCI-H522 lung): 32.1 µM
TGI (NCI-H522 lung): > 100 µM
GI50 (OVCAR-4 ovarian): 24.1 µM
TGI (OVCAR-4 ovarian): 72.4 µM
GI50 (IGROV1 ovarian): 33.4 µM
TGI (IGROV1 ovarian): > 100 µM
GI50 (U251 CNS): 35 µM
TGI (U251 CNS): > 100 µM
GI50 (HCT-116 colon): 17.5 µM
TGI (HCT-116 colon): 33.6 µM
GI50 (HT29 colon): 18 µM
TGI (HT29 colon): > 100 µM
GI50 (HCC-2998 colon): 19.1 µM
TGI (HCC-2998 colon): 45 µM
GI50 (TK-10 renal): 11.3 µM
TGI (TK-10 renal): 23.4 µM
GI50 (HOP-92 NSCLC): 3.48 µM
TGI (HOP-92 NSCLC): 16.7 µM
GI50 (SW-620 colon): 13.4 µM
TGI (SW-620 colon): 28.2 µM
GI50 (HS 578T breast): 11.9 µM
TGI (HS 578T breast): 33.3 µM
GI50 (EKVX NSCLC): 11.3 µM
TGI (EKVX NSCLC): 24.3 µM
GI50 (NCI-H226 lung): 15.2 µM
TGI (NCI-H226 lung): 33.2 µM
GI50 (ACHN renal): 17.2 µM
TGI (ACHN renal): 36.4 µM
GI50 (UO-31 renal): 34.3 µM
TGI (UO-31 renal): > 100 µM
GI50 (SK-MEL-28 melanoma): 21.7 µM
TGI (SK-MEL-28 melanoma): 60.9 µM
GI50 (SNB-75 CNS): 19.8 µM
TGI (SNB-75 CNS): 53.4 µM
GI50 (A549 NSCLC): 36.3 µM
TGI (A549 NSCLC): 83.2 µM
GI50 (MDA-MB-231 breast): 3.41 µM
TGI (MDA-MB-231 breast): 16.1 µM

Reference: PubChem BioAssay (NCI)
